From the NIST ThermoML archive (doi:10.1016/j.jct.2005.09.003)

Assay: xn = mol fraction of the nth substance listed
Conditions: Liquid, x1 = 1

CCCCCCCC [octane] + CCCCCCCl
mass density [kg/m3]
Conditions | 298.15 K | 308.15 K | 318.15 K | 328.15 K
100 kPa | 698.64 | 690.43 | 682.47 | 674.53
2130 kPa | 700.14 | 692.18 | 684.48 | 676.49
4150 kPa | 701.87 | 694 | 686.45 | 678.56
6180 kPa | 703.56 | 695.79 | 688.29 | 680.59
8210 kPa | 705.17 | 697.53 | 690.17 | 682.57
10230 kPa | 706.78 | 699.24 | 691.97 | 684.51
11250 kPa | 707.58 | 700.07 | 692.85 | 685.44
12260 kPa | 708.37 | 700.88 | 693.77 | 686.38
14290 kPa | 709.9 | 702.55 | 695.49 | 688.23
16310 kPa | 711.41 | 704.13 | 697.2 | 690.03
18340 kPa | 712.9 | 705.71 | 698.86 | 691.76
20370 kPa | 714.36 | 707.23 | 700.47 | 693.5
22390 kPa | 715.78 | 708.76 | 702.07 | 695.17
24420 kPa | 717.18 | 710.22 | 703.61 | 696.82
26450 kPa | 718.56 | 711.66 | 705.13 | 698.41
28470 kPa | 719.9 | 713.09 | 706.66 | 699.98
29490 kPa | 720.57 | 713.77 | 707.38 | 700.75
30500 kPa | 721.22 | 714.47 | 708.13 | 701.53
32530 kPa | 722.53 | 715.84 | 709.54 | 703.01
34550 kPa | 723.82 | 717.18 | 710.96 | 704.5
36580 kPa | 725.06 | 718.5 | 712.33 | 705.96
38600 kPa | 726.32 | 719.82 | 713.68 | 707.36
39620 kPa | 726.94 | 720.45 | 714.38 | 708.06
